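Where inhibition never reached the appropriate level, the endpoint shown equals the highest concentration tested. Otherwise, values were interpolated linearly from a five-concentration, 48-hour dose response in 96-well plates. At the TGI there is no net growth.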

What all share (assay): inhibition of tumour cell growth, NCI panel, 48 h
Test [1] concerns A549 NSCLC.
The subject of test [2] is BT-549 breast.
The subject of test [3] is CAKI-1 renal.
Test [4] relates to DU-145 prostate.
Test [5] relates to HCT-15 colon.
The subject of test [6] is K-562 leukemia.
Test [7] has as its system MALME-3M melanoma.
For test [8], the system named is MDA-MB-435.
The test system of test [9] is MDA-N.
The subject of test [10] is NCI-H226 lung.
The subject of test [11] is NCI-H460 lung.
For test [12], the system named is NCI-H522 lung.
The test system of test [13] is OVCAR-5 ovarian.
Test [14] relates to SF-295 CNS.
In test [15] the test system is SF-539 CNS.
The test system of test [16] is SNB-75 CNS.
The test system of test [17] is SR leukemia.
Test [18] concerns HOP-62 NSCLC.
The subject of test [19] is T-47D breast.
Test [20] concerns HS 578T breast.

`COC(=O)CC(CNC(=O)OCc1ccccc1)OCc1ccc(OC)cc1` (configuration not stated): the TGI in test [1], in [2], in test [3], in [4], in [5] and in test [6] was more than 100 µM each time. Also, the TGI in [7], in [8], in test [9], in test [10], in test [11] and in [12] was more than 100 µM throughout. Moreover, the TGI in test [13], in test [14], in test [15], in test [16] and in test [17] was more than 100 µM in each case.
Take `CC1CCC2CC1NC(=O)CCOCCC(=O)NC2(C)C` (configuration not stated): the TGI in test [1], in test [2], in [4], in test [5], in test [18] and in test [6] was more than 100 µM in each case. Moreover, the TGI in test [8], in test [9], in [11], in test [12], in test [13] and in test [14] was more than 100 µM throughout. Further, the TGI in test [15], in [16], in [17] and in [19] was more than 100 µM each time.
For the compound `COC(=O)[C@H](COC(C)(C)C)NC(=O)N[C@H](C)c1ccccc1`, the TGI in [1], in [2], in test [3], in [4], in test [5] and in test [18] was more than 100 µM throughout. Also, the TGI in test [20], in [6], in test [8], in [9], in test [10] and in test [11] was more than 100 µM throughout. Besides, the TGI in test [12], in [13], in test [14], in test [15], in [16] and in [17] was more than 100 µM in each case.
Take `C=C(CCC/C(C)=C/C=C/[C@H](C)CCCc1ccoc1)C[C@@H]1OC(=O)[C@H](C)[C@@H]1O`: the TGI was 15.2 µM in test [1]; 16.9 µM in test [2]; 19.2 µM in test [3]; 19 µM in test [4]; 27.4 µM in [5]; 18.8 µM in test [18]. In addition, the TGI was determined as 28.6 µM in test [6]; 19.8 µM in test [7]; 18.5 µM in test [8]; 20.5 µM in test [9]; 16.6 µM in test [10]; 45 µM in test [11]. For the same compound, the TGI in [12] worked out at 18.8 µM; in test [13] it was 23.8 µM; in [14], 22.9 µM; in test [15] it was 19.2 µM; in test [16] it was 17.3 µM; in test [17], 37.8 µM. In addition, the TGI in [19] was determined as 17.6 µM.
As for `Cc1cccc2c1c(=O)c1c(O)cc3c(c1n2C)C=CC(C)(C)O3`, the TGI in test [1], in [2], in test [3], in test [4], in test [5] and in test [18] was more than 100 µM throughout. The TGI in test [20], in [6], in test [7], in test [8], in test [9] and in [10] was more than 100 µM each time. Besides, the TGI in test [11], in [12], in test [13], in [14], in test [15] and in test [16] was more than 100 µM in each case. In test [17], this compound returned a TGI of more than 100 µM.
On to `N#CCC1C2CC3C(C2=O)C13` (configuration not stated), for which the TGI in [1], in test [3], in [4], in [5], in test [18] and in test [20] was more than 100 µM in each case. For the same compound, the TGI in test [6], in test [7], in test [8], in test [9], in test [10] and in test [11] was more than 100 µM in each case. Besides, the TGI in test [12], in test [13], in test [14], in test [15], in [16] and in [17] was more than 100 µM in each case. The same compound had a TGI in [19] of more than 100 µM.
Take `Cc1c(-c2nc(N)c(C#N)c(N)c2C#N)c(=O)oc2ccccc12`: the TGI in [1], in test [2], in test [3], in test [4], in test [5] and in test [18] was more than 100 µM throughout. Also, the TGI in [20], in test [6], in test [7], in test [9], in test [10] and in test [11] was more than 100 µM each time. Besides, the TGI in [13], in [14], in [15], in test [16] and in [19] was more than 100 µM in each case.
For the compound `c1ccc2cc(CNCCCCNCCCNCc3ccc4ccccc4c3)ccc2c1`, the TGI in test [1] was determined as 4.25 µM; in test [2] it was 3.37 µM; in [3], 3.31 µM; in test [4] it was 2.53 µM; in [5], 1.58 µM; in test [18], 3.31 µM. Also, the TGI was found to be 1.26 µM in test [20]; 3.28 µM in test [7]; 3.1 µM in test [8]; 2.54 µM in test [9]; 2.78 µM in test [10]; 0.338 µM in [11]. For the same compound, the TGI in test [12] was 2.78 µM; in test [13] it was 3.61 µM; in [14] it was 2.96 µM; in [15], 3.47 µM; in test [16], 2.95 µM.

The values are drawn from PubChem BioAssay (NCI).
